ChEMBL document CHEMBL1201862, “PubChem BioAssay data set” (2004)
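Compound exposure: 48 hours, 5 concentrations, 96-well plates. The concentration for 50% growth inhibition is given as GI50.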 The source made the active and inactive calls. Rule as the data show it: active = GI50 up to about 1.1 µM and inactive = higher.

Tests used:
Experiment in all cases: NCI anticancer screen, dose series, 48 h
[1] = tested on: OVCAR-5
[2] = tested on: LOX IMVI
[3] = tested on: SF-268
[4] = tested on: NCI-H226
[5] = tested on: SNB-19
[6] = tested on: UO-31
[7] = tested on: K562
[8] = tested on: HCC 2998
[9] = tested on: OVCAR-4
[10] = tested on: UACC-257
[11] = tested on: NCI-H23
[12] = tested on: MDA-N
[13] = tested on: CAKI-1
[14] = tested on: NCI/ADR-RES
[15] = tested on: MDA-MB-231
[16] = tested on: MDA-MB-435
[17] = tested on: SR
[18] = tested on: HL-60
[19] = tested on: SF-539
[20] = tested on: SNB-75

Structure (SMILES)	GI50 [1]	GI50 [2]	GI50 [3]	GI50 [4]	GI50 [5]	GI50 [6]	GI50 [7]	GI50 [8]	GI50 [9]	GI50 [10]	GI50 [11]	GI50 [12]	GI50 [13]	GI50 [14]	GI50 [15]	GI50 [16]	GI50 [17]	GI50 [18]	GI50 [19]	GI50 [20]
CCc1ccc(CCN2CCCCC2)nc1	> 100 µM (inactive)	> 100 µM (inactive)	> 100 µM (inactive)	> 100 µM (inactive)	> 100 µM (inactive)	> 100 µM (inactive)	> 100 µM (inactive)	> 100 µM (inactive)	> 100 µM (inactive)	> 100 µM (inactive)	> 100 µM (inactive)	> 100 µM (inactive)	> 100 µM (inactive)	> 100 µM (inactive)	> 100 µM (inactive)	> 100 µM (inactive)	–	–	–	–
Nc1ccc(S(=O)(=O)c2ccc(/N=[N+](\[O-])c3ccc(S(=O)(=O)c4ccc(N)cc4)cc3)cc2)cc1	> 100 µM (inactive)	> 60.7 µM (inactive)	15 µM (inactive)	14.6 µM (inactive)	44.4 µM (inactive)	> 100 µM (inactive)	> 100 µM (inactive)	> 100 µM (inactive)	19.4 µM (inactive)	> 91.8 µM (inactive)	34.8 µM (inactive)	–	86.9 µM (inactive)	> 74.3 µM (inactive)	35.8 µM (inactive)	> 100 µM (inactive)	> 61.4 µM (inactive)	> 100 µM (inactive)	18.9 µM (inactive)	8.02 µM (inactive)
O=C(/N=N/c1ccccc1Cl)NNc1ccccc1Cl	43.2 µM (inactive)	23.4 µM (inactive)	60.5 µM (inactive)	> 100 µM (inactive)	63.2 µM (inactive)	21.8 µM (inactive)	27.8 µM (inactive)	27.1 µM (inactive)	16.2 µM (inactive)	> 100 µM (inactive)	50 µM (inactive)	36.5 µM (inactive)	36.7 µM (inactive)	–	54.3 µM (inactive)	31 µM (inactive)	27.5 µM (inactive)	19.2 µM (inactive)	–	> 100 µM (inactive)
COc1ccc2c(c1)CCN1CCc3cc(OC)c(OC)cc3CC21 (stereo not drawn)	> 100 µM (inactive)	33 µM (inactive)	28.9 µM (inactive)	> 100 µM (inactive)	82 µM (inactive)	31.8 µM (inactive)	34.9 µM (inactive)	38.3 µM (inactive)	> 100 µM (inactive)	93.8 µM (inactive)	98.9 µM (inactive)	–	> 100 µM (inactive)	> 100 µM (inactive)	> 100 µM (inactive)	66.1 µM (inactive)	39.8 µM (inactive)	–	76.4 µM (inactive)	66.7 µM (inactive)
CCOP(=O)(OCC)C(F)(F)c1ccc(CC(NC(=O)OC(C)(C)C)C(=O)O)cc1 (stereo not drawn)	> 10 µM (inactive)	> 10 µM (inactive)	> 10 µM (inactive)	> 10 µM (inactive)	> 10 µM (inactive)	> 10 µM (inactive)	> 10 µM (inactive)	> 10 µM (inactive)	> 10 µM (inactive)	> 10 µM (inactive)	> 10 µM (inactive)	> 10 µM (inactive)	> 10 µM (inactive)	> 10 µM (inactive)	> 10 µM (inactive)	> 10 µM (inactive)	–	–	> 10 µM (inactive)	> 10 µM (inactive)
COc1cc(C2C3=C(NC(=O)C2C#N)c2ccc4ccccc4c2OCC3)cc(OC)c1OC (stereo not drawn)	17.6 µM (inactive)	–	22.8 µM (inactive)	–	28.3 µM (inactive)	15.1 µM (inactive)	44.6 µM (inactive)	25 µM (inactive)	48 µM (inactive)	56.5 µM (inactive)	41.3 µM (inactive)	–	20.1 µM (inactive)	30.4 µM (inactive)	–	41.7 µM (inactive)	–	27 µM (inactive)	18.7 µM (inactive)	16.2 µM (inactive)
N#Cc1nc(-c2cccnc2)oc1N	> 100 µM (inactive)	> 100 µM (inactive)	> 100 µM (inactive)	> 100 µM (inactive)	> 100 µM (inactive)	4.83 µM (inactive)	> 100 µM (inactive)	> 100 µM (inactive)	> 100 µM (inactive)	> 100 µM (inactive)	–	–	> 100 µM (inactive)	–	> 100 µM (inactive)	> 100 µM (inactive)	> 100 µM (inactive)	> 100 µM (inactive)	–	–
CCCCCCc1ccc(CCCCCCCC(=O)O)o1	> 100 µM (inactive)	> 100 µM (inactive)	–	94 µM (inactive)	> 100 µM (inactive)	> 100 µM (inactive)	22.3 µM (inactive)	> 100 µM (inactive)	> 100 µM (inactive)	> 100 µM (inactive)	> 100 µM (inactive)	> 100 µM (inactive)	> 100 µM (inactive)	> 100 µM (inactive)	–	> 100 µM (inactive)	44 µM (inactive)	–	> 100 µM (inactive)	55.7 µM (inactive)
Cc1cccc(NC(=S)Nc2ccc([N+](=O)[O-])cc2)n1	–	> 100 µM (inactive)	> 100 µM (inactive)	> 100 µM (inactive)	> 100 µM (inactive)	> 100 µM (inactive)	> 100 µM (inactive)	> 100 µM (inactive)	> 100 µM (inactive)	> 100 µM (inactive)	> 100 µM (inactive)	–	> 100 µM (inactive)	> 100 µM (inactive)	> 100 µM (inactive)	> 100 µM (inactive)	> 100 µM (inactive)	> 100 µM (inactive)	> 100 µM (inactive)	> 100 µM (inactive)
O=C(CC(=O)N1N=C(N(c2ccccc2)c2ccccc2)CC1c1ccccc1)Nc1ccc(Cl)cc1 (stereo not drawn)	> 100 µM (inactive)	–	> 100 µM (inactive)	> 100 µM (inactive)	> 100 µM (inactive)	> 100 µM (inactive)	> 100 µM (inactive)	> 100 µM (inactive)	> 100 µM (inactive)	> 100 µM (inactive)	> 100 µM (inactive)	–	> 100 µM (inactive)	> 100 µM (inactive)	> 100 µM (inactive)	> 100 µM (inactive)	> 100 µM (inactive)	> 100 µM (inactive)	> 100 µM (inactive)	94 µM (inactive)
OCSc1nn(CO)c(=S)s1	48.1 µM (inactive)	18 µM (inactive)	21.6 µM (inactive)	31.6 µM (inactive)	25.8 µM (inactive)	–	20.7 µM (inactive)	22.1 µM (inactive)	18.5 µM (inactive)	23 µM (inactive)	20 µM (inactive)	–	31.1 µM (inactive)	21.1 µM (inactive)	28.1 µM (inactive)	18.4 µM (inactive)	0.0643 µM (active)	18 µM (inactive)	23.4 µM (inactive)	24.4 µM (inactive)
O=C1NC(=O)C(C(c2ccc([N+](=O)[O-])cc2)C2C(=O)NC(=O)NC2=O)C(=O)N1	> 100 µM (inactive)	> 100 µM (inactive)	22.5 µM (inactive)	> 100 µM (inactive)	> 100 µM (inactive)	> 100 µM (inactive)	> 100 µM (inactive)	–	> 100 µM (inactive)	> 100 µM (inactive)	> 100 µM (inactive)	> 100 µM (inactive)	> 100 µM (inactive)	> 100 µM (inactive)	> 100 µM (inactive)	> 100 µM (inactive)	–	> 100 µM (inactive)	–	–
COC(=O)C1=C2Nc3ccccc3C23CCN2C(O)C4(CC5CC67CCOC6CCN6CCC8(c9cccc(OC)c9N(C4)C58O)C67)C4OCCC4(C1)C23 (stereo not drawn)	> 100 µM (inactive)	95.5 µM (inactive)	26.1 µM (inactive)	87.9 µM (inactive)	45.7 µM (inactive)	> 100 µM (inactive)	> 100 µM (inactive)	> 100 µM (inactive)	61.9 µM (inactive)	> 100 µM (inactive)	> 100 µM (inactive)	98.2 µM (inactive)	25.2 µM (inactive)	–	15.6 µM (inactive)	58.7 µM (inactive)	14.7 µM (inactive)	> 100 µM (inactive)	> 100 µM (inactive)	23.5 µM (inactive)
Nc1ccc(C2SCC(=O)N2NS(=O)(=O)c2cccc(C(=O)O)c2)cc1 (stereo not drawn)	> 100 µM (inactive)	> 100 µM (inactive)	> 100 µM (inactive)	> 100 µM (inactive)	> 100 µM (inactive)	> 100 µM (inactive)	> 100 µM (inactive)	> 100 µM (inactive)	–	> 100 µM (inactive)	> 100 µM (inactive)	> 100 µM (inactive)	> 100 µM (inactive)	–	> 100 µM (inactive)	> 100 µM (inactive)	12.1 µM (inactive)	> 100 µM (inactive)	> 100 µM (inactive)	> 100 µM (inactive)
Cc1cc2c(cc1C)[n+]([O-])c(NCCCN(C)C)c(C#N)[n+]2[O-]	> 100 µM (inactive)	> 100 µM (inactive)	> 100 µM (inactive)	67 µM (inactive)	> 100 µM (inactive)	> 100 µM (inactive)	37.5 µM (inactive)	88.3 µM (inactive)	> 100 µM (inactive)	> 100 µM (inactive)	80.9 µM (inactive)	> 100 µM (inactive)	72.1 µM (inactive)	85.1 µM (inactive)	–	> 100 µM (inactive)	13.2 µM (inactive)	45.3 µM (inactive)	> 100 µM (inactive)	85.7 µM (inactive)
C=C1C(=O)[C@@]23CC[C@@H]4[C@@]5(C)CCC[C@@]4(OC5=O)C2(C)CC[C@]1(OC)C3 (stereo partly drawn)	2.06 µM (inactive)	0.232 µM (active)	2.14 µM (inactive)	–	1.83 µM (inactive)	1.79 µM (inactive)	0.0993 µM (active)	0.351 µM (active)	–	1.51 µM (inactive)	1.45 µM (inactive)	0.52 µM (active)	1.75 µM (inactive)	1.45 µM (inactive)	–	1.32 µM (inactive)	0.23 µM (active)	–	1.57 µM (inactive)	1.24 µM (inactive)
